Data taken from US8796324B2, “Substituted 2-acetamido-5-aryl-1,2,4-triazolones and use thereof” (Bayer Intellectual Property GmbH, priority 2009, dated 2014).

Key:
human V1a receptor = target: T1, human V1a receptor (Homo sapiens, UniProt P37288); experiment: Cellular in vitro assay for determining the vasopressin receptor activity (aequorin luminescence); type: cell-based; conditions: CHO cell line transfected with the human V1a receptor; agonist [Arg8]-vasopressin; read-out: IC50 hV1a
T1 construct: expressed in transfected cells; host or cells: CHO K1 (constitutively expressing modified aequorin)
Text: (§1) B-1. Cellular In Vitro Assay for Determining the Vasopressin Receptor Activity
(§2) The identification of agonists and antagonists of the V1a and V2 vasopressin receptors from humans and rats and also the quantification of the activity of the substances described here took place using recombinant cell lines. These cells derive originally from a hamster ovary epithelial cell (Chinese Hamster Ovary, CHO K1, ATCC: American Type Culture Collection, Manassas, Va. 20108, USA). The test cell lines constitutively express a modified form of the calcium-sensitive photoprotein aequorin, which, after reconstitution with the cofactor coelenterazine, emits light when there are increases in the free calcium concentration (Rizzuto R., Simpson A. W., Brini M., Pozzan T.; Nature 358 (1992) 325-327). In addition, the cells are stably transfected with the human or rat V1a or V2 receptors. In the case of the Gs-coupling V2 receptors, the cells are stably transfected with a further gene, which codes for the promiscuous Gα16 protein (Amatruda T. T., Steele D. A., Slepak V. Z., Simon M. I., Proc. Nat. Acad. Sci. USA 88 (1991), 5587-5591), either independently or as a fusion gene. The resulting vasopressin receptor test cells react to stimulation of the recombinantly expressed vasopressin receptors by intracellular release of calcium ions, which can be quantified by the resulting aequorin luminescence using a suitable luminometer (Milligan G., Marshall F., Rees S., Trends in Pharmaco. Sci. 17 (1996) 235-237).
(§3) On the day before the assay, the cells are plated out in culture medium (DMEM, 10% FCS, 2 mM glutamine, 10 mM HEPES) in 384-well microtiter plates and kept in a cell incubator (96% humidity, 5% v/v carbon dioxide, 37° C.). On the day of the assay, the culture medium is replaced by a Tyrode solution (140 mM sodium chloride, 5 mM potassium chloride, 1 mM magnesium chloride, 2 mM calcium chloride, 20 mM glucose, 20 mM HEPES), which additionally contains the cofactor coelenterazine (50 μM), and the microtiter plate is then incubated for a further 3-4 hours. The test substances in various concentrations are placed for 10 to 20 minutes in the wells of the microtiter plate before the agonist [Arg8]-vasopressin is added, and the resulting light signal is measured immediately in the luminometer. The IC50 values are calculated using the GraphPad PRISM computer program (Version 3.02).
(§4) The table below lists representative IC50 values for the compounds of the invention on the cell line transfected with the human V1a or V2 receptor: […]

human V2 receptor = target: T2, human V2 receptor (Homo sapiens, UniProt P30518); experiment: as above; type: cell-based; conditions: CHO cell line transfected with the human V2 receptor (and Gα16); agonist [Arg8]-vasopressin; read-out: IC50 hV2
T2 construct: expressed in transfected cells; host or cells: CHO K1 (constitutively expressing modified aequorin; co-transfected with promiscuous G-alpha-16)
Text: as §1, §2, §3, §4

T1 sequence (P37288 whole entry): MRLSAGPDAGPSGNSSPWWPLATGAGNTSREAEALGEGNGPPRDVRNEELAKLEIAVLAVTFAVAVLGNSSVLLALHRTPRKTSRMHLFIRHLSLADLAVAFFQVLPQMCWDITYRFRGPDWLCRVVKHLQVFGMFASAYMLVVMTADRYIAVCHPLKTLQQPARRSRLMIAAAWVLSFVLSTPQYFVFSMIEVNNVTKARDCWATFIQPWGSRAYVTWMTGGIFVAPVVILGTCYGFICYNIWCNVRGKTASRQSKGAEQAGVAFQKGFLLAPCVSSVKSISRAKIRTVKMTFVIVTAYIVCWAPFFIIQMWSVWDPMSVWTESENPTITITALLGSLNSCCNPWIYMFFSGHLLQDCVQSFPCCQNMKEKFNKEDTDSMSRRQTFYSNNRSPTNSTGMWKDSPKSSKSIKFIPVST
T2 sequence (P30518 whole entry): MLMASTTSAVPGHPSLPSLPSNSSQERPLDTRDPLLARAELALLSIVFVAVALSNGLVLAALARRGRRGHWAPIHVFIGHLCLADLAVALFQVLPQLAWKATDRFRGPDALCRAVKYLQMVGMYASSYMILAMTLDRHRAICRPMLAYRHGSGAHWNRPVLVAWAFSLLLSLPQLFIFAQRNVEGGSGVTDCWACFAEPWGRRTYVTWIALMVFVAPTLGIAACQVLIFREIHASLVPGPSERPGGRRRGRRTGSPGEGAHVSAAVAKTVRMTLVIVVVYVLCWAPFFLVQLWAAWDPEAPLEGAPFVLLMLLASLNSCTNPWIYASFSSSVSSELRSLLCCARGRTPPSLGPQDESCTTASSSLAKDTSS

| Compound | IC50 (human V1a receptor) | IC50 (human V2 receptor) |
| --- | --- | --- |
| COC(=O)NCC(NC(=O)Cn1nc(-c2ccc(Cl)cc2)n(CCC(F)(F)F)c1=O)c1cccc(Cl)c1Cl (single isomer, unassigned) [Example 115, Methyl [2-({[3-(4-chlorophenyl)-5-oxo-4-(3,3,3-trifluoropropyl)-4,5-dihydro-1H-1,2,4-triazol-1-yl]acetyl}amino)-2-(2,3-dichlorophenyl)ethyl]carbamate] | 3.5 nM | 7.6 nM |
| O=C(Cn1nc(-c2ccc(Cl)cc2)n(Cc2ccccc2F)c1=O)NC(CO)c1cccc(F)c1F (centres unmarked) [Example 184] | 72 nM | 26.6 nM |
| O=C(Cn1nc(-c2ccc(Cl)cc2)n(C2CC2)c1=O)NC(CO)c1cccc(C(F)(F)F)c1 (racemic) [Example 96, 2-[3-(4-Chlorophenyl)-4-cyclopropyl-5-oxo-4,5-dihydro-1H-1,2,4-triazol-1-yl]-N-{2-hydroxy-1-[3-(trifluoromethyl)phenyl]ethyl}acetamide] | 71.3 nM | 40.2 nM |
| NC(=O)OCC(NC(=O)Cn1nc(-c2ccc(Cl)cc2)n(C[C@H](O)C(F)(F)F)c1=O)c1ccccc1Cl (stereo partly drawn) [Example 53, 2-(2-Chlorophenyl)-2-[({3-(4-chlorophenyl)-5-oxo-4-[(2S)-3,3,3-trifluoro-2-hydroxypropyl]-4,5-dihydro-1H-1,2,4-triazol-1-yl}acetyl)amino]ethyl carbamate] | 1.5 nM | 4.9 nM |
| NC(=O)OCC(NC(=O)Cn1cc(-c2ccc(Cl)cc2)n(CC(O)C(F)(F)F)c1=O)c1ccccc1C(F)(F)F (centres unmarked) [Example 207, 2-({[4-(4-Chlorophenyl)-2-oxo-3-(3,3,3-trifluoro-2-hydroxypropyl)-2,3-dihydro-1H-imidazol-1-yl]acetyl}amino)-2-[2-(trifluoromethyl)phenyl]ethyl carbamate] | 3.3 nM | 101 nM |
| NC(=O)OCC(NC(=O)Cn1nc(-c2ccc(Cl)cc2)n(C[C@H](O)C(F)(F)F)c1=O)c1cccc(C(F)(F)F)c1 (single isomer, unassigned) [Example 48] | 5.2 nM | 4.4 nM |
| O=C(Cn1nc(-c2ccc(Cl)cc2)n(C[C@H](O)C(F)(F)F)c1=O)NC(C[N+](=O)[O-])c1cccc(C(F)(F)F)c1 (single isomer, unassigned; diastereomer i) [Example 2] | 7.6 nM | 2.6 nM |
| CC(=O)NCC(NC(=O)Cn1nc(-c2ccc(Cl)cc2)n(C[C@H](O)C(F)(F)F)c1=O)c1cccc(C(F)(F)F)c1 (mixture of isomers) [Example 20, N-{2-(Acetylamino)-1-[3-(trifluoromethyl)phenyl]ethyl}-2-{3-(4-chlorophenyl)-5-oxo-4-[(2S)-3,3,3-trifluoro-2-hydroxypropyl]-4,5-dihydro-1H-1,2,4-triazol-1-yl}acetamide (diastereomer mixture)] | 1.5 nM | 6.3 nM |
| O=C(Cn1nc(-c2ccc(Cl)s2)n(Cc2ccccc2F)c1=O)NC(CO)c1cccc(F)c1F (centres unmarked) [Example 185] | 55 nM | 45 nM |
| O=C(Cn1nc(-c2ccc(Cl)cc2)n(C[C@H](O)C(F)(F)F)c1=O)NC(CO)c1cccc(F)c1F (stereo partly drawn) [Example 95, 2-{3-(4-Chlorophenyl)-5-oxo-4-[(2S)-3,3,3-trifluoro-2-hydroxypropyl]-4,5-dihydro-1H-1,2,4-triazol-1-yl}-N-[1-(2,3-difluorophenyl)-2-hydroxyethyl]acetamide] | 57.3 nM | 19.2 nM |
| O=C(Cn1nc(-c2ccc(Cl)cc2)n(C[C@H](O)C(F)(F)F)c1=O)NC(c1ccccc1)C(O)C(F)(F)F (stereo partly drawn) [Example 94, 2-{3-(4-Chlorophenyl)-5-oxo-4-[(2S)-3,3,3-trifluoro-2-hydroxypropyl]-4,5-dihydro-1H-1,2,4-triazol-1-yl}-N-(3,3,3-trifluoro-2-hydroxy-1-phenylpropyl)acetamide] | 251 nM | 72.3 nM |
| NC(=O)OCC(NC(=O)Cn1nc(-c2ccc(Cl)cc2)n(Cc2ccccc2F)c1=O)c1ccccc1C(F)(F)F (single isomer, unassigned) [Example 191, 2-({[3-(4-Chlorophenyl)-4-(2-fluorobenzyl)-5-oxo-4,5-dihydro-1H-1,2,4-triazol-1-yl]acetyl}amino)-2-[2-(trifluoromethyl)phenyl]ethyl carbamate] | 2.3 nM | 24.8 nM |
| N#Cc1cccc([C@H](CO)NC(=O)Cn2nc(-c3ccc(Cl)cc3)n(C[C@H](O)C(F)(F)F)c2=O)c1 [Example 75, 2-{3-(4-Chlorophenyl)-5-oxo-4-[(2S)-3,3,3-trifluoro-2-hydroxypropyl]-4,5-dihydro-1H-1,2,4-triazol-1-yl}-N-[(1R)-1-(3-cyanophenyl)-2-hydroxyethyl]acetamide] | 513 nM | 59.2 nM |
| C[C@@](COC(N)=O)(NC(=O)Cn1nc(-c2ccc(Cl)cc2)n(C[C@H](O)C(F)(F)F)c1=O)c1cccc(C(F)(F)F)c1 [Example 45, (2R)-2-[({3-(4-Chlorophenyl)-5-oxo-4-[(2S)-3,3,3-trifluoro-2-hydroxypropyl]-4,5-dihydro-1H-1,2,4-triazol-1-yl}acetyl)amino]-2-[3-(trifluoromethyl)phenyl]propyl carbamate] | 5.5 nM | 2.5 nM |
| C=CCn1c(-c2ccc(Cl)cc2)nn(CC(=O)NC(CO)c2cccc(Cl)c2F)c1=O (centres unmarked) [Example 168] | 87 nM | 76 nM |

Results, then the compound that gave them:

| IC50 (human V1a receptor) | IC50 (human V2 receptor) | Compound |
| --- | --- | --- |
| 1 nM | 8.9 nM | NCC(NC(=O)Cn1nc(-c2ccc(Cl)cc2)n(C[C@H](O)C(F)(F)F)c1=O)c1ccccc1C(F)(F)F (single isomer, unassigned; diastereomer ii) [Example 14] |
| 0.5 nM | 4.5 nM | NC(=O)NCC(NC(=O)Cn1nc(-c2ccc(Cl)cc2)n(C[C@H](O)C(F)(F)F)c1=O)c1ccccc1C(F)(F)F (single isomer, unassigned) [Example 60] |
| 1 nM | 8.5 nM | NC(=O)OCC(NC(=O)Cn1nc(-c2ccc(Cl)cc2)n(C[C@H](O)C(F)(F)F)c1=O)c1ccccc1C(F)(F)F (single isomer, unassigned) [Example 51] |
| 3.8 nM | 5.8 nM | Cc1ccccc1C(CCO)NC(=O)Cn1nc(-c2ccc(Cl)cc2)n(C[C@H](O)C(F)(F)F)c1=O (single isomer, unassigned) [Example 87] |
| 3.9 nM | 24 nM | CS(=O)(=O)CC(NC(=O)Cn1nc(-c2ccc(Cl)cc2)n(C[C@H](O)C(F)(F)F)c1=O)c1ccccc1C(F)(F)F (single isomer, unassigned) [Example 136] |
| 1.4 nM | 7.8 nM | O=C(Cn1nc(-c2ccc(Cl)cc2)n(C[C@H](O)C(F)(F)F)c1=O)NC(CO)c1ccccc1C(F)(F)F (single isomer, unassigned; diastereomer i) [Example 39] |
| 4.3 nM | 1.8 nM | NS(=O)(=O)OCC(NC(=O)Cn1nc(-c2ccc(Cl)cc2)n(C[C@H](O)C(F)(F)F)c1=O)c1cccc(C(F)(F)F)c1 (stereo partly drawn) [Example 159, 2-[({3-(4-Chlorophenyl)-5-oxo-4-[(2S)-3,3,3-trifluoro-2-hydroxypropyl]-4,5-dihydro-1H-1,2,4-triazol-1-yl}acetyl)amino]-2-[3-(trifluoromethyl)phenyl]ethyl sulphamate] |
